The record followed here is ChEMBL document CHEMBL5576097, “Synthesis and biological evaluation of novel penindolone derivatives as potential antiproliferative agents against SCLC in vitro” (Bioorg Med Chem Lett, 2024).

Molecules are shown by their SMILES. Active and inactive are the calls of the source. The rule behind the calls is not given here.

Assay [1] relates to H69AR. The experiment in a line: Antiproliferative activity against human NCI-H69AR cells by SRB assay. In kind it is functional, cell-based.
Assay [2] concerns A549. Briefly: Antiproliferative activity against human A549 cells by SRB assay. It counts as functional, cell-based.
Assay [3] has as its system NCI-H358. The experiment in a line: Antiproliferative activity against human NCI-H358 cells by SRB assay. It counts as functional, cell-based.
In assay [4] the test system is H69AR. The experiment in a line: Inhibition of colony formation in human NCI-H69AR cells. In kind it is functional, cell-based. As to conditions: dose 0-8 µM.
Assay [5] has as its system H69AR. The experiment in a line: Inhibition of colony formation in human NCI-H69AR cells at 8 uM relative to control. In kind it is functional.
Assay [6] relates to H69AR. The experiment in a line: Induction of cell cycle arrest in human NCI-H69AR cells assessed as reduction in number of cells in S phase measured after 24 hrs by flow cytometry analysis. It counts as functional, cell-based. Conditions: dose 0-8 µM.
The subject of assay [7] is H69AR. Briefly: Induction of cell cycle arrest in human NCI-H69AR cells assessed as increase in number of cells in G0/G1 phase at 0 to 8 uM measured after 24 hrs by flow cytometry analysis. In kind it is functional, cell-based. Conditions: dose 0-8 µM.
The subject of assay [8] is H69AR. Briefly: Induction of apoptosis in human NCI-H69AR cells assessed as increase in cleaved caspase-8 protein expression by Western blot analysis. Conditions: dose 0.5-8 µmol/L. It counts as functional, cell-based.
For assay [9], the system named is H69AR. Briefly: Induction of apoptosis in human NCI-H69AR cells assessed as increase in cleaved PARP protein expression by Western blot analysis. In kind it is functional, cell-based. As to conditions: dose 0.5-8 µmol/L.
In assay [10] the test system is H69AR. Briefly: Induction of apoptosis in human NCI-H69AR cells assessed as increase in BAX protein expression by Western blot analysis. In kind it is functional, cell-based. Conditions: dose 0.5-8 µmol/L.
The subject of assay [11] is H69AR. The experiment in a line: Induction of apoptosis in human NCI-H69AR cells assessed as reduction in Bcl-2 protein expression by Western blot analysis. In kind it is functional, cell-based. As to conditions: dose 0.5-8 µmol/L.
In assay [12] the test system is H69AR. Briefly: Induction of apoptosis in human NCI-H69AR cells assessed as reduction in XIAP protein expression by Western blot analysis. It counts as functional, cell-based. Conditions: dose 0.5-8 µmol/L.
The test system of assay [13] is H69AR. Briefly: Induction of apoptosis in human NCI-H69AR cells assessed as live cells at 2 micromol/L measured after 48 hrs by Annexin V-FITC/PI staining based flow cytometry analysis (reference value: 97.7%). Conditions: dose 2 µmol/L, at 2 µM. In kind it is functional.
Assay [14] deals with H69AR. Briefly: Induction of apoptosis in human NCI-H69AR cells assessed as early apoptotic cells at 2 micromol/L measured after 48 hrs by Annexin V-FITC/PI staining based flow cytometry analysis (reference value: 1.96%). In kind it is functional. Conditions: dose 2 µmol/L, at 2 µM.
The subject of assay [15] is H69AR. Briefly: Induction of apoptosis in human NCI-H69AR cells assessed as late apoptotic cells at 2 micromol/L measured after 48 hrs by Annexin V-FITC/PI staining based flow cytometry analysis (reference value: 0.38%). In kind it is functional. Conditions: dose 2 µmol/L, at 2 µM.
Assay [16] concerns H69AR. Briefly: Induction of apoptosis in human NCI-H69AR cells assessed as dead cells at 2 micromol/L measured after 48 hrs by Annexin V-FITC/PI staining based flow cytometry analysis (reference value: 0%). It counts as functional. Conditions: dose 2 µmol/L, at 2 µM.
Assay [17] has as its system H69AR. The experiment in a line: Induction of apoptosis in human NCI-H69AR cells assessed as live cells at 4 micromol/L measured after 48 hrs by Annexin V-FITC/PI staining based flow cytometry analysis (reference value: 97.7%). As to conditions: dose 4 µmol/L, at 4 µM. In kind it is functional.
Assay [18] concerns H69AR. The experiment in a line: Induction of apoptosis in human NCI-H69AR cells assessed as early apoptotic cells at 4 micromol/L measured after 48 hrs by Annexin V-FITC/PI staining based flow cytometry analysis (reference value: 1.96%). In kind it is functional. Conditions: dose 4 µmol/L, at 4 µM.
Assay [19] deals with H69AR. Briefly: Induction of apoptosis in human NCI-H69AR cells assessed as late apoptotic cells at 4 micromol/L measured after 48 hrs by Annexin V-FITC/PI staining based flow cytometry analysis (reference value: 0.38%). It counts as functional. As to conditions: dose 4 µmol/L, at 4 µM.
Assay [20] deals with H69AR. Briefly: Induction of apoptosis in human NCI-H69AR cells assessed as dead cells at 4 micromol/L measured after 48 hrs by Annexin V-FITC/PI staining based flow cytometry analysis (reference value: 0%). It counts as functional. Conditions: dose 4 µmol/L, at 4 µM.
Assay [21] deals with H69AR. Briefly: Induction of apoptosis in human NCI-H69AR cells assessed as live cells at 8 micromol/L measured after 48 hrs by Annexin V-FITC/PI staining based flow cytometry analysis (reference value: 97.7%). As to conditions: dose 8 µmol/L, at 8 µM. In kind it is functional.
In assay [22] the test system is H69AR. The experiment in a line: Induction of apoptosis in human NCI-H69AR cells assessed as early apoptotic cells at 8 micromol/L measured after 48 hrs by Annexin V-FITC/PI staining based flow cytometry analysis (reference value: 1.96%). In kind it is functional. As to conditions: dose 8 µmol/L, at 8 µM.
For assay [23], the system named is H69AR. Briefly: Induction of apoptosis in human NCI-H69AR cells assessed as late apoptotic cells at 8 micromol/L measured after 48 hrs by Annexin V-FITC/PI staining based flow cytometry analysis (reference value: 0.38%). It counts as functional. Conditions: dose 8 µmol/L, at 8 µM.
Assay [24] relates to H69AR. The experiment in a line: Induction of apoptosis in human NCI-H69AR cells assessed as dead cells at 8 micromol/L measured after 48 hrs by Annexin V-FITC/PI staining based flow cytometry analysis (reference value: 0%). It counts as functional. As to conditions: dose 8 µmol/L, at 8 µM.

Turning to `Cc1cc(C(=O)c2ccccc2Br)c(O)c(Cc2[nH]c3ccccc3c2Cc2c(O)c(C)cc(C(=O)c3ccccc3Br)c2O)c1O`, 7 µM corresponded to half-maximal inhibition in assay [1] (IC50).
On the same count and under the same terms, the same measure for `Cc1cc(C(=O)c2ccccc2)c(O)c(Cc2[nH]c3ccccc3c2Cc2c(O)c(C)cc(C(=O)c3ccccc3)c2O)c1O`: 7.58 µM.
Same read-out and setting: the same measure for `Cc1cc(C(=O)c2cccc(Cl)c2)c(O)c(Cc2[nH]c3ccccc3c2Cc2c(O)c(C)cc(C(=O)c3cccc(Cl)c3)c2O)c1O`: 2.81 µM.
Same read-out and setting: the result for `CCc1cc(C(C)=O)c(O)c(Cc2[nH]c3ccccc3c2Cc2c(O)c(CC)cc(C(C)=O)c2O)c1O` reads over 50 µM; that for `COc1cccc(C(=O)c2cc(C)c(O)c(Cc3[nH]c4ccccc4c3Cc3c(O)c(C)cc(C(=O)c4cccc(OC)c4)c3O)c2O)c1`, 4.25 µM; that for `Cc1cc(C(=O)CC(C)C)c(O)c(Cc2[nH]c3ccccc3c2Cc2c(O)c(C)cc(C(=O)CC(C)C)c2O)c1O`, over 50 µM.
The compound `Cc1cc(C(=O)c2ccc3ccccc3c2)c(O)c(Cc2[nH]c3ccccc3c2Cc2c(O)c(C)cc(C(=O)c3ccc4ccccc4c3)c2O)c1O` gave an IC50 in assay [1] of 41.5 µM.
Still for that read-out and setting: the result for `Cc1cc(C(=O)c2ccccc2F)c(O)c(Cc2[nH]c3ccccc3c2Cc2c(O)c(C)cc(C(=O)c3ccccc3F)c2O)c1O` reads 5.34 µM; that for `Cc1cc(C(=O)c2ccc(C(F)(F)F)cc2)c(O)c(Cc2[nH]c3ccccc3c2Cc2c(O)c(C)cc(C(=O)c3ccc(C(F)(F)F)cc3)c2O)c1O`, 4.02 µM.
Turning to `CCC(=O)c1cc(C)c(O)c(Cc2[nH]c3ccccc3c2Cc2c(O)c(C)cc(C(=O)CC)c2O)c1O`, the IC50 in assay [1] is over 50 µM.
For the compound `Cc1cc(C(=O)c2ccccc2Cl)c(O)c(Cc2[nH]c3ccccc3c2Cc2c(O)c(C)cc(C(=O)c3ccccc3Cl)c2O)c1O`, in assay [1], half-maximal inhibition (IC50) was put at 5.97 µM.
The same measure, in the same setting: the result for `Cc1cc(C(=O)c2cccc(Br)c2)c(O)c(Cc2[nH]c3ccccc3c2Cc2c(O)c(C)cc(C(=O)c3cccc(Br)c3)c2O)c1O` reads 1.86 µM; that for `Cc1cc(C(=O)c2ccc(Cl)cc2Cl)c(O)c(Cc2[nH]c3ccccc3c2Cc2c(O)c(C)cc(C(=O)c3ccc(Cl)cc3Cl)c2O)c1O`, 4 µM.
As for `Cc1cc(C(=O)c2ccc(Br)cc2)c(O)c(Cc2[nH]c3ccccc3c2Cc2c(O)c(C)cc(C(=O)c3ccc(Br)cc3)c2O)c1O`, the IC50 in [1] was found to be 1.58 µM; in assay [2], 21.2 µM; in assay [3], 35.8 µM. Also, the inhibition result in assay [4] is “Dose-Dependent Effect”. This compound also registered an inhibition at 8 µM in [5] of 100%. In addition, the Activity result in [6], in assay [8], in assay [9], in assay [10], in [11] and in [12] was “Dose-Dependent Effect” throughout. Moreover, the Activity in assay [13] was 92.9%; in [14], 4.85%; in assay [15], 2.24%; in [16], 0.01%; in assay [17], 82.9%; in assay [18] it was 11.3%. The Activity is recorded as 5.7% in assay [19]; 0.057% in assay [20]; 62.8% in [21]; 28.5% in assay [22]; 8.22% in [23]; 0.46% in assay [24]. In addition, the result in assay [7] was Active.
In the case of `COc1ccc(C(=O)c2cc(C)c(O)c(Cc3[nH]c4ccccc4c3Cc3c(O)c(C)cc(C(=O)c4ccc(OC)cc4)c3O)c2O)cc1`, the half-inhibitory concentration (IC50) in assay [1] was 3.36 µM.
Still for that read-out and setting: the result for `Cc1cccc(C(=O)c2cc(C)c(O)c(Cc3[nH]c4ccccc4c3Cc3c(O)c(C)cc(C(=O)c4cccc(C)c4)c3O)c2O)c1` reads 4.78 µM; that for `Cc1ccccc1C(=O)c1cc(C)c(O)c(Cc2[nH]c3ccccc3c2Cc2c(O)c(C)cc(C(=O)c3ccccc3C)c2O)c1O`, 3.17 µM; that for `Cc1cc(C(=O)c2ccc(F)cc2)c(O)c(Cc2[nH]c3ccccc3c2Cc2c(O)c(C)cc(C(=O)c3ccc(F)cc3)c2O)c1O`, 2.21 µM.
Still for that read-out and setting: the result for `Cc1cc(C(=O)c2cccc(F)c2)c(O)c(Cc2[nH]c3ccccc3c2Cc2c(O)c(C)cc(C(=O)c3cccc(F)c3)c2O)c1O` reads 1.94 µM.
The same measure, in the same setting: the same measure for `Cc1ccc(C(=O)c2cc(C)c(O)c(Cc3[nH]c4ccccc4c3Cc3c(O)c(C)cc(C(=O)c4ccc(C)cc4)c3O)c2O)cc1`: 3.41 µM; for `Cc1cc(C(=O)c2ccc(Cl)cc2)c(O)c(Cc2[nH]c3ccccc3c2Cc2c(O)c(C)cc(C(=O)c3ccc(Cl)cc3)c2O)c1O`: 1.64 µM; for `Cc1cc(C(=O)c2ccc(CCl)cc2)c(O)c(Cc2[nH]c3ccccc3c2Cc2c(O)c(C)cc(C(=O)c3ccc(CCl)cc3)c2O)c1O`: 13.2 µM.
As for `CC(=O)c1cc(C)c(O)c(Cc2[nH]c3ccccc3c2Cc2c(O)c(C)cc(C(C)=O)c2O)c1O`, the IC50 in [1] came out at 42.5 µM.
